{"source": "patent US20260144796A1", "about": "“Compounds and Methods for Improving Health” (Acurx Pharmaceuticals, Inc., priority 2022, published 2026)", "key": {"[1]": {"test_system": "C. difficile clinical isolates", "details": "Clostridioides difficile, 24 h, agar dilution"}, "Clostridium subterminale": {"test_system": "Clostridium subterminale", "assay": "MIC determination, stool Firmicute isolates", "assay_type": "cell-based", "details": "N=1"}, "[2]": {"test_system": "C. difficile infection (CDI)", "assay": "Phase 2a CDI clinical trial, clinical outcome and safety", "assay_type": "in vivo, human", "procedure": "Phase 2a of this trial was an open label cohort of 10 subjects from study centers in the United States. In this cohort, 10 patients with diarrhea caused by mild or moderate C. difficile diagnosed via toxin EIA+ were treated with ibezapolstat 450 mg orally, twice daily for 10 days. […] Stool was collected during course of therapy and at follow up. Patient fecal samples were evaluated for C. difficile culture and microbiome changes. […] Favorable microbiome changes included overgrowth of Actinobacteria and Firmicutes phylum species while on therapy. These findings support that microbiome effects may be predictive of beneficial patient outcomes including low rates of recurrence. […] Safety evaluations included AE assessment, physical examination, vital signs, clinical laboratory tests (chemistry, hematology, and urinalysis), and electrocardiogramaty endpoints for all subjects were recorded including nature, frequency, and severity of AEs. AEs were assessed at each visit beginning from the time of enrollment and classified according to the Medical Dictionary for Regulatory Activities (MedDRA version 15.0). AE severity (mild, moderate, or severe) and causality (unrelated, possibly related, or probably related to the study medication) were assessed by the investigator at each site. Stool samples were cultured for C. difficile growth on a selective cycloserine-cefoxitin fructose agar (CCFA) at 37° C. under anaerobic conditions for 48 hours. (Gonzales-Luna A J, Carlson T J. Dotson K M, et al. […] Emerg Microbes Infect 2020; 9(1): 341-7). Isolates were determined to be C. difficile based on growth and morphology and confirmed by PCR for C. difficile toxin and tpi genes. C. difficile was strain typed using a PCR-based ribotyping method as previously described (Gonzales-Luna A J, Carlson T J, Dotson K M, et al. […] Emerg Microbes Infect 2020; 9(1):341-7). Minimum inhibitory concentrations (MICs) were determined for ibezapolstat by broth microdilution in 0.1% sodium taurocholate Brain Heart Infusion (BHI) media (Begum K, Basseres E, Miranda J. et al. […] Antimicrob Agents Chemother 2020; 64(8)). An intent-to-treat analysis of patients receiving at least one dose of ibezapolstat was conducted. Descriptive statistics were calculated for efficacy, safety/tolerability, and PK data generated using SAS version 9.4 software (SAS Institute, Inc Cary, NC, USA). Microbiome summary plots and data visualization was prepared using R software version 4.1.1 (R Core Team 2021, Vienna, Austria). (R Core Team (2013). R: A language and environment for statistical computing. R Foundation for Statistical Computing, Vienna, Austria."}, "[3]": {"test_system": "Paeniclostridium sordellii", "assay": "MIC determination, stool Firmicute isolates", "assay_type": "cell-based", "details": "Paraclostridium sordellii"}, "[4]": {"test_system": "Erysipelatoclostridium ramosum", "assay": "MIC determination, stool Firmicute isolates", "assay_type": "cell-based", "details": "Thomasclavelia ramosa"}, "Clostridium tertium": {"test_system": "Clostridium tertium", "assay": "MIC determination, stool Firmicute isolates", "assay_type": "cell-based"}, "Dorea longicatena": {"test_system": "Dorea longicatena", "assay": "MIC determination, stool Firmicute isolates", "assay_type": "cell-based", "details": "N=1"}, "[5]": {"test_system": "representative Actinobacteria (Bifidobacteriaceae and Coriobacteriaceae)", "assay": "MIC, isolated gut microbiota species: Actinobacteria", "assay_type": "cell-based", "details": "inactive", "procedure": "Strains plated onto blood agar (Hardy Diagnostics) with a 24-hour incubation at 37° C. in an anaerobic environment (Coy vinyl anaerobic chamber). After incubation, 3-5 well-isolated colonies were suspended into 5 mL of BHI broth (Criterion Media). The cultures were incubated in an anaerobic chamber for 24 hours to achieve a 0.5 McFarland Standard. […] Plates were allowed to dry in a sterile location. After drying, the plates were covered with foil to prevent any photo-damage to the hemin and placed in the anaerobic chamber for 1 hour to reduce the media. The broth culture was then spotted onto the plates and covered with foil. Plates were allowed to dry completely before inverting them for incubation for 48 hours. Plates were analyzed and MIC recorded."}, "[6]": {"test_system": "Lachnoclostridium pacaense", "assay": "MIC determination, stool Firmicute isolates", "assay_type": "cell-based", "details": "Clostridium pacaense, N=1"}, "Enterococcus durans": {"test_system": "Enterococcus durans", "assay": "MIC determination, stool Firmicute isolates", "assay_type": "cell-based"}, "Enterococcus faecalis": {"test_system": "Enterococcus faecalis", "assay": "MIC determination, stool Firmicute isolates", "assay_type": "cell-based"}, "[7]": {"test_system": "C. difficile CD 630 and R20291 cell morphology", "assay": "Morphology assessment by bright field microscopy", "assay_type": "cell-based", "details": "sub-inhibitory to MIC, 24 hours, listed as IBZ", "procedure": "Cultures were then incubated in an anaerobic chamber at 37° C. in for 24 hrs. Pre-cultures were diluted to approximately 10^6CFU/mL (1:100) in fresh BHI comprising 0.25×MIC (0.5 ug/mL) of the appropriate antibiotic. Following incubation for 24 hrs, EVOS imaging system (Thermofisher) was used to take bright field pictures at 40× magnification."}, "Melissococcus plutonius": {"test_system": "Melissococcus plutonius", "assay": "MIC determination, stool Firmicute isolates", "assay_type": "cell-based", "details": "N=1"}, "Clostridium butyricum": {"test_system": "Clostridium butyricum", "assay": "microbe, parasite or virus in culture", "assay_type": "cell-based"}}, "note": "Entries after “also recorded” stand apart in the source; their conditions may differ. Where two headings read alike, the source gives them in different places.", "data": [{"smiles": "O=c1[nH]c(NCc2ccc(Cl)c(Cl)c2)nc2ncn(CCN3CCOCC3)c12", "note": "[Ibezapolstat, 2-((3,4-dichlorobenzyl)amino)-7-(2-morpholinoethyl)-1,7-dihydro-6H-purin-6-one]", "values": [{"measurement": "MIC", "setting": "[1]; C. difficile clinical isolate MT 4802", "result": 4, "unit": "µg/mL"}, {"measurement": "MIC", "setting": "[1]; C. difficile clinical isolate MT 5071", "result": 8, "unit": "µg/mL"}, {"measurement": "MIC", "setting": "[1]; C. difficile clinical isolate MT 5342", "result": 4, "unit": "µg/mL"}, {"measurement": "MIC", "setting": "[1]; C. difficile clinical isolate MT 5364", "result": 4, "unit": "µg/mL"}, {"measurement": "MIC", "setting": "[1]; C. difficile clinical isolate MT 5382", "result": 8, "unit": "µg/mL"}, {"measurement": "MIC", "setting": "[1]; C. difficile clinical isolate MT 5426", "result": 8, "unit": "µg/mL"}, {"measurement": "MIC", "setting": "[1]; C. difficile clinical isolate MT 5493", "result": 4, "unit": "µg/mL"}, {"measurement": "MIC", "setting": "[1]; C. difficile clinical isolate MT 5515", "result": 8, "unit": "µg/mL"}, {"measurement": "MIC", "setting": "[1]; C. difficile clinical isolate MT 5529", "result": 4, "unit": "µg/mL"}, {"measurement": "MIC", "setting": "[1]; C. difficile clinical isolate MT 5536", "result": 8, "unit": "µg/mL"}, {"measurement": "MIC", "setting": "[1]; C. difficile clinical isolate SH 1132", "result": 8, "unit": "µg/mL"}, {"measurement": "MIC50", "setting": "Clostridium subterminale", "result": 1, "unit": "µg/mL"}, {"measurement": "adverse event profile", "setting": "[2]; 10 CDI patients, 450 mg orally twice daily 10 days", "result": "acceptable adverse event profile"}, {"measurement": "clinical cure", "setting": "[2]; 10 CDI patients, 450 mg orally twice daily 10 days, at day 12", "result": 100, "unit": "%"}, {"measurement": "sustained clinical cure", "setting": "[2]; 10 CDI patients, 450 mg orally twice daily 10 days, at day 38", "result": 100, "unit": "%"}, {"measurement": "success rate", "setting": "[2]; Phase 2a CDI clinical trial", "result": 100, "unit": "%"}, {"measurement": "eradication of colonic C. difficile", "setting": "[2]; by day three of treatment", "result": "complete eradication"}, {"measurement": "recurrences of infection", "setting": "[2]; followed for recurrence for 28±2 days", "result": "no recurrences"}, {"measurement": "MIC", "setting": "[3]; read-out: MIC Max", "result": 12.5, "unit": "µg/mL"}, {"measurement": "MIC50", "setting": "[3]; Paeniclostridium sordellii, N=4", "result": 1.5, "unit": "µg/mL"}, {"measurement": "MIC", "setting": "[3]; Paeniclostridium sordellii, N=4, read-out: MIC Min", "result": 0.75, "unit": "µg/mL"}, {"measurement": "MIC50", "setting": "[4]; N=5", "result": 6.25, "unit": "µg/mL"}, {"measurement": "MIC", "setting": "[4]; N=5, read-out: MIC Max", "result": 100, "unit": "µg/mL"}, {"measurement": "MIC", "setting": "[4]; N=5, read-out: MIC Min", "result": 3.12, "unit": "µg/mL"}, {"measurement": "MIC50", "setting": "Clostridium tertium", "result": 12.5, "unit": "µg/mL"}, {"measurement": "MIC", "setting": "Clostridium tertium; N=2, read-out: MIC Min", "result": 3.12, "unit": "µg/mL"}, {"measurement": "MIC", "setting": "Clostridium tertium; read-out: MIC Max", "result": 12.5, "unit": "µg/mL"}, {"measurement": "MIC50", "setting": "Dorea longicatena", "result": 3.12, "unit": "µg/mL"}, {"measurement": "MIC", "setting": "[5]", "result": "> 64", "unit": "µg/mL"}, {"measurement": "MIC50", "setting": "[6]", "result": 25, "unit": "µg/mL"}, {"measurement": "MIC50", "setting": "Enterococcus durans; N=1", "result": 100, "unit": "µg/mL"}, {"measurement": "MIC", "setting": "Enterococcus durans; N=1, read-out: MIC Max", "result": 100, "unit": "µg/mL"}, {"measurement": "MIC", "setting": "Enterococcus durans; N=1, read-out: MIC Min", "result": 100, "unit": "µg/mL"}, {"measurement": "MIC50", "setting": "Enterococcus faecalis", "result": 12.5, "unit": "µg/mL"}, {"measurement": "MIC", "setting": "Enterococcus faecalis; N=5, read-out: MIC Max", "result": 50, "unit": "µg/mL"}, {"measurement": "MIC", "setting": "Enterococcus faecalis; read-out: MIC Min", "result": 12.5, "unit": "µg/mL"}, {"measurement": "cell morphology", "setting": "[7]", "result": "elongated cell phenotype; also recorded: dose-dependent effect on C. difficile cell length"}, {"measurement": "MIC50", "setting": "Melissococcus plutonius", "result": 6.25, "unit": "µg/mL"}, {"measurement": "MIC50", "setting": "Clostridium butyricum", "result": 12.5, "unit": "µg/mL"}, {"measurement": "MIC", "setting": "Clostridium butyricum; read-out: MIC Max, Clostridium butyricum, N=5", "result": 100, "unit": "µg/mL"}, {"measurement": "MIC", "setting": "Clostridium butyricum; read-out: MIC Min, Clostridium butyricum, N=5", "result": 1.5, "unit": "µg/mL"}, {"measurement": "MIC", "setting": "Clostridium butyricum; strain C. butyricum 1007", "result": "> 100", "unit": "µg/mL"}, {"measurement": "MIC", "setting": "Clostridium butyricum; strain C. butyricum 1008", "result": 1.5, "unit": "µg/mL"}]}]}
